Experimental data from US20120321590A1, “BRIDGED POLYCYCLIC COMPOUNDS” (priority 2011, published 2012).
Read-outs that look alike come from different tables or passages of the source.

Legend:
Format in all cases: cell-based, HCV
[1] = Transient replicon assay, genotype 1a chimeric replicon; conditions: Hepatitis C virus, genotype 1a / genotype 1b, Huh-7, 96 h, read-out: EC50 1a, Huh7-Lunet cells transfected with chimeric replicon RNA, cultured 4 days, luciferase activity
Protocol: (§1) The transient replicon assay utilizes the genotype 1b (Con1) dicistronic subgenomic replicon. Genotype 1a activity was determined using a chimeric replicon containing the genotype 1b sequence for NS3 through NS5A nonstructural proteins and genotype 1a (H77) sequence for the NS5B region.
(§2) The RNA transcripts were generated using the Megascript T7 kit (Applied Biosystems, Foster City, Calif.). Exponentially growing Huh7-Lunet cells were mixed with 4 μg of replicon RNA and plated into a 96-well plate Gene Pulser MXcell Electroporation System (Bio-Rad, Hercules, Calif.). Electroporation was immediately performed at 250 V and 750 μF capacitance with a single exponential waveform pulse. Transfected cells were transferred to Dulbecco modified Eagle medium in the presence of 10% FBS and plated into 96-well plates with 7,500 cells per well. Compounds at various concentrations were added to the cells after 2 hours and were cultured for 4 days. The cells were lysed with the Bright-Glo Reagent (Promega, Madison, Wis.) and luciferase activity was measured with a luminometer (Wallac 1420 Multilabel HTS Counter Victor 2). The background control was replicon cells treated with 100 nM BILN-2061, an inhibitor of the HCV protease. Dose responses were performed in triplicate and the values were averaged. All experiments were repeated at least three times to verify the reproducibility.
(§3) The EC50 values were determined using a standard four-parameter dose response equation.

[2] = tested on: genotype 1b (Con1) dicistronic subgenomic replicon; experiment: Transient replicon assay, genotype 1b; conditions: Huh7-Lunet cells transfected with replicon RNA, cultured 4 days, luciferase activity
Protocol: as §1, §2, §3

[3] = tested on: chimeric replicon containing the genotype 1b sequence for NS3 through NS5A and genotype 1a (H77) sequence for the NS5B region; experiment: Transient replicon assay, genotype 1a chimeric replicon
Protocol: as §1, §2, §3

[4] = read-out: EC50 1a; Huh7-Lunet cells transfected with chimeric replicon RNA, cultured 4 days, luciferase activity

Row | SMILES | EC50 [1] [nM] | EC50 ([2]; Hepatitis C virus, Huh-7, 96 h) [nM] | EC50 ([3]; Huh7-Lunet cells transfected with chimeric replicon RNA, cultured 4 days, luciferase activity; read-out: EC50 1a) [nM] | EC50 [2] [nM] | EC50 [3, 4] [nM]
1 | CS(=O)(=O)Nc1ccc2c(c1)S(=O)(=O)N=C(C1=C(O)[C@@H]3C4C5C6CC7C4C7C(C65)[C@@H]3N(Cc3ccc(F)cc3)C1=O)N2 (racemic) [Example 1, rac-N-{3-[(4S,9R)-5-[(4-Fluorophenyl)methyl]-8-hydroxy-6-oxo-5-azahexacyclo[8.5.0.0^2,15.0^3,12.0^4,9.0^11,13]pentadec-7-en-7-yl]-1,1-dioxo-4H-1λ^6,2,4-benzothiadiazin-7-yl}methanesulfonamide] | 12 | 2 | – | – | –
2 | CS(=O)(=O)NCc1csc2c1S(=O)(=O)N=C(C1=C(O)[C@@H]3C4C5C6CC7C4C7C(C65)[C@@H]3N(Cc3ccc(F)cc3)C1=O)N2 (racemic) [Example 4, rac-N-({3-[(4S,9R)-5-[(4-Fluorophenyl)methyl]-8-hydroxy-6-oxo-5-azahexacyclo[8.5.0.0^2,15.0^3,12.0^4,9.0^11,13]pentadec-7-en-7-yl]-1,1-dioxo-4H-1λ^6,5,2,4-thieno[2,3-e][1λ^6,2,4]thiadiazin-7-yl}methyl)methanesulfonamide] | – | – | 42 | 1 | –
3 | CS(=O)(=O)Nc1ccc2c(c1)S(=O)(=O)N=C(C1=C(O)[C@@H]3C4CC5CC(C4)CC(C5)[C@@H]3N(Cc3ccc(F)cc3)C1=O)N2 (racemic) [Example 5, rac-N-{3-[(2S,7R)-3-[(4-Fluorophenyl)methyl]-6-hydroxy-4-oxo-3-azatetracyclo[8.3.1.1^8,12.0^2,7]pentadec-5-en-5-yl]-1,1-dioxo-4H-1λ^6,2,4-benzothiadiazin-7-yl}methanesulfonamide] | 193 | 11 | – | – | –
4 | CS(=O)(=O)NCc1csc2c1S(=O)(=O)N=C(C1=C(O)[C@@H]3C4CC5CC(C4)CC(C5)[C@@H]3N(Cc3ccc(F)cc3)C1=O)N2 (racemic) [Example 6, rac-N-({3-[(2S,7R)-3-[(4-Fluorophenyl)methyl]-6-hydroxy-4-oxo-3-azatetracyclo[8.3.1.1^8,12.0^2,7]pentadec-5-en-5-yl]-1,1-dioxo-4H-1λ^6,5,2,4-thieno[2,3-e][1λ^6,2,4]thiadiazin-7-yl}methyl)methanesulfonamide] | 696 | 42 | – | – | –
5 | CS(=O)(=O)Nc1ccc2c(c1)S(=O)(=O)N=C(C1=C(O)[C@@H]3C4C5CC6C4C6C5[C@@H]3N(Cc3ccc(F)cc3)C1=O)N2 (mixture of isomers) [Example 7, rac-N-{3-[(1R,9S)-10-[(4-Fluorophenyl)methyl]-13-hydroxy-11-oxo-10-azapentacyclo[7.4.0.0^2,7.0^3,5.0^4,8]tridec-12-en-12-yl]-1,1-dioxo-4H-1λ^6,2,4-benzothiadiazin-7-yl}methanesulfonamide] | – | 4 | – | – | 137
6 | CS(=O)(=O)Nc1ccc2c(c1)S(=O)(=O)N=C(C1=C(O)[C@@H]3C4C5CC6C4C6C5[C@@H]3N(Cc3ccc(F)cc3)C1=O)N2 (mixture of isomers) [Example 8, rac-N-{3-[(1R,9S)-10-[(4-Fluorophenyl)methyl]-13-hydroxy-11-oxo-10-azapentacyclo[7.4.0.0^2,7.0^3,5.0^4,8]tridec-12-en-12-yl]-1,1-dioxo-4H-1λ^6,2,4-benzothiadiazin-7-yl}methanesulfonamide] | – | – | – | 4 | 336
7 | CS(=O)(=O)NCc1csc2c1S(=O)(=O)N=C(C1=C(O)[C@@H]3C4C5CC6C4C6C5[C@@H]3N(Cc3ccc(F)cc3)C1=O)N2 (mixture of isomers) [Example 9, rac-N-({3-[(1R,9S)-10-[(4-Fluorophenyl)methyl]-13-hydroxy-11-oxo-10-azapentacyclo[7.4.0.0^2,7.0^3,5.0^4,8]tridec-12-en-12-yl]-1,1-dioxo-4H-1λ^6,5,2,4-thieno[2,3-e][1λ^6,2,4]thiadiazin-7-yl}methyl)methanesulfonamide] | 171 | 5 | – | – | –
8 | CS(=O)(=O)Nc1ccc2c(c1)S(=O)(=O)N=C(C1=C(O)C3C4C5C6C7C4C7C(C56)C3N(Cc3ccc(F)cc3)C1=O)N2 (racemic) [Example 10, rac-N-{3-[(1R,10S)-11-[(4-Fluorophenyl)methyl]-14-hydroxy-12-oxo-11-azahexacyclo[8.4.0.0^2,70.0^3,5.0^4,9.0^6,8]tetradec-13-en-13-yl]-1,1-dioxo-4H-1λ^6,2,4-benzothiadiazin-7-yl}methanesulfonamide] | 8 | 1 | – | – | –
9 | CS(=O)(=O)NCc1csc2c1S(=O)(=O)N=C(C1=C(O)C3C4C5C6C7C4C7C(C56)C3N(Cc3ccc(F)cc3)C1=O)N2 (racemic) [Example 13, rac-N-({3-[(1R,10S)-11-[(4-Fluorophenyl)methyl]-14-hydroxy-12-oxo-11-azahexacyclo[8.4.0.0^2,7.0^3,5.0^4,9.0^6,8]tetradec-13-en-13-yl]-1,1-dioxo-4H-1λ^6,5,2,4-thieno[2,3-e][1λ^6,2,4]thiadiazin-7-yl}methyl)methanesulfonamide] | 36 | 2 | – | – | –
10 | CS(=O)(=O)Nc1ccc2c(c1)S(=O)(=O)N=C(C1=C(O)C3C4C5C6C4C4C6C5C4C3N(Cc3ccc(F)cc3)C1=O)N2 (racemic) [Example 14, rac-N-{3-[(1R,10S)-11-[(4-fluorophenyl)methyl]-14-hydroxy-12-oxo-11-azahexacyclo[8.4.0.0^2,5.0^3,8.0^4,7.0^6,9]tetradec-13-en-13-yl]-1,1-dioxo-4H-1λ^6,2,4-benzothiadiazin-7-yl}methanesulfonamide] | 43 | 2 | – | – | –
11 | CS(=O)(=O)NCc1csc2c1S(=O)(=O)N=C(C1=C(O)C3C4C5C6C4C4C6C5C4C3N(Cc3ccc(F)cc3)C1=O)N2 (racemic) [Example 15, rac-N-({3-[(1R,10S)-11-[(4-fluorophenyl)methyl]-14-hydroxy-12-oxo-11-azahexacyclo[8.4.0.0^2,5.0^3,8.0^4,7.0^6,9]tetradec-13-en-13-yl]-1,1-dioxo-4H-1λ^6,5,2,4-thieno[2,3-e][1λ^6,2,4]thiadiazin-7-yl}methyl)methanesulfonamide] | – | 13 | – | – | –
12 | CS(=O)(=O)Nc1ccc2c(c1)S(=O)(=O)N=C(C1=C(O)[C@@H]3C4C5C6CC7C4C7C(C65)[C@@H]3N(Cc3ccc(F)cc3)C1=O)N2 [Example 2, N-{3-[(4S,9R)-5-[(4-Fluorophenyl)methyl]-8-hydroxy-6-oxo-5-azahexacyclo[8.5.0.0^2,15.0^3,12.0^4,9.0^11,13]pentadec-7-en-7-yl]-1,1-dioxo-4H-1λ^6,2,4-benzothiadiazin-7-yl}methanesulfonamide] | 8 | 1 | – | – | –
13 | CS(=O)(=O)Nc1ccc2c(c1)S(=O)(=O)N=C(C1=C(O)[C@H]3C4C5C6CC7C(C74)C(C65)[C@H]3N(Cc3ccc(F)cc3)C1=O)N2 [Example 3, N-{3-[(4R,9S)-5-[(4-Fluorophenyl)methyl]-8-hydroxy-6-oxo-5-azahexacyclo[8.5.0.0^2,15.0^3,12.0^4,9.0^11,13]pentadec-7-en-7-yl]-1,1-dioxo-4H-1λ^6,2,4-benzothiadiazin-7-yl}methanesulfonamide] | > 330 | > 330 | – | – | –
14 | CS(=O)(=O)Nc1ccc2c(c1)S(=O)(=O)N=C(C1=C(O)[C@@H]3C4C5C6C7C4C7C(C65)[C@@H]3N(Cc3ccc(F)cc3)C1=O)N2 (stereo partly drawn) [Example 11, N-{3-[(1R,10S)-11-[(4-Fluorophenyl)methyl]-14-hydroxy-12-oxo-11-azahexacyclo[8.4.0.0^2,7.0^3,5.0^4,9.0^6,8]tetradec-13-en-13-yl]-1,1-dioxo-4H-1λ^6,2,4-benzothiadiazin-7-yl}methanesulfonamide] | 4 | 0.5 | – | – | –
15 | CS(=O)(=O)Nc1ccc2c(c1)S(=O)(=O)N=C(C1=C(O)[C@H]3C4C5C6C7C(C74)C(C65)[C@H]3N(Cc3ccc(F)cc3)C1=O)N2 (stereo partly drawn) [Example 12] | > 330 | > 330 | – | – | –
16 | CS(=O)(=O)Nc1ccc2c(c1)S(=O)(=O)N=C(C1=C(O)[C@@H]3CCC[C@@H]3N(Cc3ccc(F)cc3)C1=O)N2 [Example 17, reference compound] | 550 | 18 | – | – | –
17 | CS(=O)(=O)Nc1ccc2c(c1)S(=O)(=O)N=C(C1=C(O)[C@@H]3[C@H]4CC[C@H](C4)[C@@H]3N(Cc3ccc(F)cc3)C1=O)N2 [Example 18, reference compound] | 45 | 2 | – | – | –
18 | CS(=O)(=O)NCc1csc2c1S(=O)(=O)N=C(C1=C(O)[C@@H]3[C@H]4CC[C@H](C4)[C@@H]3N(Cc3ccc(F)cc3)C1=O)N2 [Example 19, reference compound] | 45 | 2 | – | – | –
19 | CS(=O)(=O)Nc1ccc2c(c1)S(=O)(=O)N=C(C1=C(O)[C@@H]3C4CCC(CC4)[C@@H]3N(Cc3ccc(F)cc3)C1=O)N2 [Example 20, reference compound] | 12 | 0.6 | – | – | –
20 | CS(=O)(=O)Nc1ccc2c(c1)S(=O)(=O)N=C(c1c(O)c3cccn3n(Cc3ccc(F)cc3)c1=O)N2 [Example 21, reference compound] | 400 | 13 | – | – | –
